For 30 compounds, IC50 results are on record in patent publication US12018021B2 (UCB Biopharma SRL, priority 2018, dated 2024).

The structures appear in SMILES notation.

For this assay, the target named is IgE-Tb / sFcεRIα-Y131A-AF488 (Homo sapiens, UniProt P01854, N146Q/N252Q). As to the kind of experiment: IgE-Tb / sFcεRIα-Y131A-AF488 FRET assay (protocol for examples 234 to 501). Particulars: examples 234 to 501: compound with IgE-Tb 30 minutes before sFcεRIα-Y131A-AF488, incubated 18 hours at room temperature; read-out: Y131A FRET IC50 range. The class given is binding. The procedure, abridged: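 Read-out is the 520/490 nm emission ratio (337 nm excitation) after 18 h at room temperature, background subtracted, fitted four-parameter for IC50. Final reagents: 5 nM IgE-Tb, preincubated 30 min with compound (top typically 10 μM, 2% DMSO, 3-fold 10-point), plus 25 nM sFcεRIα-Y131A-AF488.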
Sequence of IgE-Tb / sFcεRIα-Y131A-AF488 (P01854 whole entry N146Q/N252Q): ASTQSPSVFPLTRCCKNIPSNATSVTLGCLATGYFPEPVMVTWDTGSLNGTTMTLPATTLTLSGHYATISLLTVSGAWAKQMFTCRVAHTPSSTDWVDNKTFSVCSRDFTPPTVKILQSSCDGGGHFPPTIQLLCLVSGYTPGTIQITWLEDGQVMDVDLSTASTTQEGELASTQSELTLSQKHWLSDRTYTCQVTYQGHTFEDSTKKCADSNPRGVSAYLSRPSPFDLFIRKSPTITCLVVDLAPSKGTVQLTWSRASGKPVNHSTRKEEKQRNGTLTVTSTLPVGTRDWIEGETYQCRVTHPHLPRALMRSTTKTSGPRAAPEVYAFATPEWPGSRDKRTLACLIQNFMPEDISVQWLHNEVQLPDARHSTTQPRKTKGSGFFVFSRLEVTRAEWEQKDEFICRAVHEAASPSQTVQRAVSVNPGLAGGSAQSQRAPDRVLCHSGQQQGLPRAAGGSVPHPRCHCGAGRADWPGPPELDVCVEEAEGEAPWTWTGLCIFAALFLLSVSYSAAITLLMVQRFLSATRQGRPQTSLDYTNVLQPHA
Turning to `Cn1nc(OC(F)F)cc1Nc1nncn1[C@H]1CCc2sc(NC(=O)C3CC3(F)F)c(C(=O)NC[C@@H]3C[C@@H]3F)c2C1` (single isomer, unassigned) [Example 281, (5S)-2-[[(1S*)-2,2-difluorocyclopropanecarbonyl]amino]-5-[3-[[5-(difluoromethoxy)-2-methyl-pyrazol-3-yl]amino]-1,2,4-triazol-4-yl]-N-[[(1S,2S)-2-fluorocyclopropyl]methyl]-4,5,6,7-tetrahydrobenzothiophene-3-carboxamide], the IC50 was under 1000 nM.
For `Cn1nc(C(F)F)cc1Nc1nncn1[C@H]1CCc2sc(NC(=O)C3CC3(F)F)c(C(=O)NCC3CC3(F)F)c2C1` (single isomer, unassigned) [Example 282], the IC50 is under 1000 nM.
Take `Cn1nc(C(F)F)cc1Nc1nncn1[C@H]1CCc2sc(NC(=O)C3CC3(F)F)c(C(=O)NCC3CC3(F)F)c2C1` (single isomer, unassigned) [Example 283]: the half-maximal inhibitory concentration (IC50) was under 1000 nM.
As for `O=C(NCC1CC1)c1c(NC(=O)C2CC2)sc2c1C[C@@H](n1cnnc1NC1CCC3(CCN(c4ncccn4)C3)C1)CC2` (single isomer, unassigned) [Example 289], the half-maximal inhibitory concentration (IC50) was under 1000 nM.
To `Cn1nc(OC(F)F)cc1Nc1nncn1[C@H]1CCc2sc(NC(=O)[C@H]3C[C@H]3F)c(C(=O)NCC3CC3)c2C1` (single isomer, unassigned) [Example 349] belongs under 1000 nM; to `Cn1nc(OC(F)F)cc1Nc1nncn1[C@H]1CCc2sc(NC(=O)[C@@H]3C[C@@H]3F)c(C(=O)NCC3CC3)c2C1` (single isomer, unassigned) [Example 350], under 1000 nM; to `Cn1nc(C(F)F)cc1Nc1nncn1[C@H]1CCc2sc(NC(=O)[C@@H]3C[C@@H]3F)c(C(=O)NCC3CC3)c2C1` (single isomer, unassigned) [Example 362], under 1000 nM.
To `Cn1nc(C(F)F)cc1Nc1nncn1[C@H]1CCc2sc(NC(=O)[C@H]3C[C@H]3F)c(C(=O)NCC3CC3)c2C1` (single isomer, unassigned) [Example 363] belongs under 1000 nM.
Consider `Cn1nc(C(F)F)cc1Nc1nncn1[C@H]1CCc2sc(NC(=O)[C@@H]3C[C@H]3F)c(C(=O)NCC3CC3)c2C1` (single isomer, unassigned) [Example 367], for which the 50% inhibitory concentration (IC50) was under 1000 nM.
Next, `Cn1nc(OC(F)F)cc1Nc1nncn1[C@H]1CCc2sc(NC(=O)[C@H]3C[C@@H]3F)c(C(=O)NC[C@H]3CC3(F)F)c2C1` (single isomer, unassigned) [Example 374]: under 1000 nM; `Cn1nc(OC(F)F)cc1Nc1nncn1[C@H]1CCc2sc(NC(=O)[C@H]3C[C@@H]3F)c(C(=O)NC[C@@H]3CC3(F)F)c2C1` (single isomer, unassigned) [Example 375]: under 1000 nM; `Cn1nc(OC(F)F)cc1Nc1nncn1[C@H]1CCc2sc(NC(=O)[C@H]3C[C@@H]3F)c(C(=O)NC[C@H]3C[C@@H](F)C3)c2C1` (single isomer, unassigned) [Example 377]: under 1000 nM.
To `Cn1nc(OC(F)F)cc1Nc1nncn1[C@H]1CCc2sc(NC(=O)[C@H]3C[C@@H]3F)c(C(=O)NC[C@H]3C[C@H](F)C3)c2C1` (single isomer, unassigned) [Example 378] belongs under 1000 nM; to `Cn1nc(OC(F)F)cc1Nc1nncn1[C@H]1CCc2sc(NC(=O)[C@H]3C[C@@H]3F)c(C(=O)N[C@H]3C[C@H](F)C3)c2C1` (single isomer, unassigned) [Example 379], under 1000 nM.
As to `Cn1nc(C(F)F)cc1Nc1nncn1[C@H]1CCc2sc(NC(=O)C3CC3)c(C(=O)NC[C@H]3CC3(F)F)c2C1` (single isomer, unassigned) [Example 382], the IC50 was under 1000 nM.
To `Cn1nc(C(F)F)cc1Nc1nncn1[C@H]1CCc2sc(NC(=O)C3CC3)c(C(=O)NC[C@@H]3CC3(F)F)c2C1` (single isomer, unassigned) [Example 383] belongs under 1000 nM.
Take `Cn1nc(C(F)F)cc1Nc1nncn1[C@H]1CCc2sc(NC(=O)C3CC3)c(C(=O)NC[C@@H]3CC34CC4)c2C1` (single isomer, unassigned) [Example 385]: the half-maximal inhibitory concentration (IC50) was under 1000 nM.
Next, `Cn1nc(C(F)F)cc1Nc1nncn1[C@H]1CCc2sc(NC(=O)C3CC3)c(C(=O)NC[C@H]3CC34CC4)c2C1` (single isomer, unassigned) [Example 386]: under 1000 nM; `Cn1nc(C(F)(F)F)cc1Nc1nncn1[C@H]1CCc2sc(NC(=O)[C@H]3C[C@H]3F)c(C(=O)N[C@@H]3CC34CC4)c2C1` (single isomer, unassigned) [Example 393]: under 1000 nM; `Cn1nc(C(F)(F)F)cc1Nc1nncn1[C@H]1CCc2sc(NC(=O)[C@H]3C[C@H]3F)c(C(=O)N[C@H]3CC34CC4)c2C1` (single isomer, unassigned) [Example 394]: under 1000 nM.
On to `Cn1nc(C(F)(F)F)cc1Nc1nncn1[C@H]1CCc2sc(NC(=O)[C@H]3C[C@H]3F)c(C(=O)NC[C@H]3CC3(F)F)c2C1` (single isomer, unassigned) [Example 397], for which the IC50 is under 1000 nM.
Consider `Cn1nc(C(F)(F)F)cc1Nc1nncn1[C@H]1CCc2sc(NC(=O)[C@H]3C[C@H]3F)c(C(=O)NC[C@@H]3CC3(F)F)c2C1` (single isomer, unassigned) [Example 398], for which the IC50 is under 1000 nM.
As for `Cn1nc(C(F)F)cc1Nc1nncn1[C@H]1CCc2sc(NC(=O)[C@H]3CC34CC4)c(C(=O)NC[C@@H]3CC3(F)F)c2C1` (single isomer, unassigned) [Example 409], the IC50 is under 1000 nM.
Regarding `Cn1nc(C(F)F)cc1Nc1nncn1[C@H]1CCc2sc(NC(=O)[C@H]3CC34CC4)c(C(=O)NC[C@H]3CC3(F)F)c2C1` (single isomer, unassigned) [Example 410], the IC50 was under 1000 nM.
With `CCOC(=O)c1c(NC(=O)[C@H]2CC23CC3)sc2c1C[C@@H](n1cnnc1Nc1cc(C(F)F)nn1C)CC2` (single isomer, unassigned) [Example 417], the half-maximal inhibitory concentration (IC50) was under 1000 nM.
Turning to `C[C@H]1c2c(sc(NC(=O)C3CC3)c2C(=O)NCC2CC2)CC[C@@H]1n1cnnc1Nc1cc(C(F)(F)F)nn1C` (single isomer, unassigned) [Example 422, (4R*,5R*)-2-(cyclopropanecarbonylamino)-N-(cyclopropylmethyl)-4-methyl-5-[3-[[2-methyl-5-(trifluoromethyl)pyrazol-3-yl]amino]-1,2,4-triazol-4-yl]-4,5,6,7-tetrahydrobenzothiophene-3-carboxamide], the IC50 is under 1000 nM.
To `Cn1nc(OC(F)F)cc1Nc1nncn1[C@H]1CCc2sc(NC(=O)C3CC3)c(C(=O)NC[C@H]3CC3(F)F)c2C1` (single isomer, unassigned) [Example 459] belongs under 1000 nM; to `Cn1nc(OC(F)F)cc1Nc1nncn1[C@H]1CCc2sc(NC(=O)C3CC3)c(C(=O)NC[C@@H]3CC3(F)F)c2C1` (single isomer, unassigned) [Example 460], under 1000 nM; to `COc1cc(Nc2nncn2[C@H]2CCc3sc(NC(=O)[C@H]4C[C@@H]4C)c(C(=O)NC[C@H]4CC4(F)F)c3C2)n(C)n1` (single isomer, unassigned) [Example 463], under 1000 nM.
Next, `COc1cc(Nc2nncn2[C@H]2CCc3sc(NC(=O)[C@H]4C[C@@H]4C)c(C(=O)NC[C@@H]4CC4(F)F)c3C2)n(C)n1` (single isomer, unassigned) [Example 464]: under 1000 nM.

The IC50 is the concentration at which inhibition is half-maximal.
